The source of these data is patent US10428159B2, “Blocking monoclonal antibodies to AGR2 and its receptor C4.4A” (Board of Regents, The University of Texas System, priority 2014, dated 2019).

In test [1] the test system is AsPC-1 cells. Kind of test: Apoptosis assay (Gem, rAGR2, antibodies). It counts as cell-based. The note with it: AsPC-1, 5 μM Gem. How it is done: FIGS. 11A-D. Monoclonal antibodies developed bind respectively to AGR2 and C4.4A proteins and blocked their functions. From the endogenous lysate (SU86.86/Panc-1), AGR2 (18 kD) and C4.4A (50 kD) were identified by a panel of mAbs. […] Extra bands identified with the endogenous protein were re-confirmed with the recombinant protein. For apoptosis studies, AsPC-1 cells were treated without or with Gem (0.5 μM) and rAGR2 (100 nM) and with purified (A) AGR2 and (B) C4.4A Abs (1 μM). Commercially available Abs served as control. […] Horizontal line represents median apoptotic value. Data shown are mean±SE for 3 experiments (*p<0.05). (C,D) Binding assays were conducted with purified (C) AGR2 and (D) C4.4A Abs as selected from the apoptosis assay as having high blocking efficiency. ELISA assays were conducted by coating antigenic peptide (0.5 μg) and probed with respective purified Abs. Data shown are mean±SE for 3 experiments (*p <0.05). Based on high specificity and binding, clone 28B for AGR2 and 1A for C4.4A were selected. Purified Abs were also run on 4-20% gradient gel to check for the presence of heavy (50 kD) and light chains (25 kD).
Cell growth, migration, invasion and apoptosis assays. Wild-type and siRNA transfected PDAC cells were grown with rAGR2 (0-500 nM) in the presence and absence of antibodies (polyclonal commercial or newly developed mAbs) (1 μM). The medium was refreshed daily. […]

Another test has as its system BxPC-3 cells. Kind of test: Apoptosis assay (Gem, rAGR2). In kind it is cell-based. To be noted: BxPC-3, Gem 1 μM. How it is done:
FIGS. 7A-D. Extracellular rAGR2-mediated functions. (A) Pancreatic cancer cells (BxPC-3 and MiaPaCa-2) were used for these studies. Extracellular addition of rAGR2 caused a significant dose-dependent increase in proliferation (BxPC-3-3-fold increase; MiaPaCa-2-4-fold increase; p<0.05). Pancreatic cancer cells were plated (2×10^4 cells) with and without rAGR2 (0-100 nM) on a Boyden's chamber for migration studies (B) and on an invasion chamber for invasion studies (C). After 22 h, cells were fixed with methanol and stained by hematoxylin, and cells in 10 random fields at 100× magnification were photographed and counted. Extracellular addition of rAGR2 caused a significant dose-dependent increase in migration (BxPC-3-7-fold increase; MiaPaCa-2-3-fold increase) and invasion (BxPC-3-10-fold increase; MiaPaCa-2-3-fold increase). (D) For analysis of apoptosis, BxPC-3 cells were treated with and without Gem (1 μM) and AGR2 (100 nM). […] Data shown are mean±SE for 3 experiments (*p<0.05 vs. control).
Cell growth, migration, invasion and apoptosis assays. Wild-type and siRNA transfected PDAC cells were grown with rAGR2 (0-500 nM) in the presence and absence of antibodies (polyclonal commercial or newly developed mAbs) (1 μM). The medium was refreshed daily. Cell numbers were estimated after 48 h by MTS assay as described previously (Ramachandran et al., 2007). […]

Test [2] relates to AsPC-1 cells. In words: Model 1 AsPC-1 aggressive cell model, orthotopic tumors. In kind it is in vivo, athymic nude mice. How it is done:
In vivo studies. In vivo experiments were conducted with athymic nude mice (B6.Cg-Foxn1^nu/J—female—age 9 weeks) (NCI, Bethesda, Md.) according to the UT MDACC regulatory standards and IUCAC committee approval. Orthotopic tumors were developed with luciferase-labeled cells (0.25×10^6). IgG (Cat #OB010701; Southern Biotech, Birmingham, Ala.) served as a control Ab.
Model 1 (AsPC-1-Aggressive Cell Model)—Two weeks after the injection of the aggressive AsPC-1 cells, when the tumors weighed less than 0.5 g (as surgically confirmed from a parallel untreated group), mice (n=6) were treated with control or mAbs (5 mg each of AGR2/C4.4A mAb in combination/kg/body weight/twice a week/i.p) and with or without Gem (100 mg/kg body weight/once a week/i.p) until all of the control mice had died (seven weeks). Tumor weight and metastasis to liver and lung were compared between control and treated groups ex vivo at the end of the experiment.

As to `Nc1ccn([C@@H]2O[C@H](CO)[C@@H](O)C2(F)F)c(=O)n1` [Gem, Gemcitabine, reference compound], the increase in apoptosis in the test on AsPC-1 cells [1] came out at 3 fold; with BxPC-3 cells, 1 fold. Also, in the test on AsPC-1 cells [2] (Gem 100 mg/kg once a week i.p., alone or in combination with the mAbs), the “effect on tumor growth and metastasis incidence” value was “no significant effect”. In the test with AsPC-1 cells [2] (after four weeks of treatment (six weeks total), when all control Ab mice had died), the mice remained alive stood at 30%.
